# According to US6852673B2, “Herbicidal pyridine compounds” (BASF Aktiengesellschaft, priority 1998, dated 2005):
# How the values were obtained:
# Format in all cases: in vivo
# [1] = tested on: Zea mays (ZEAMX); test: Pre-emergence herbicidal evaluation, maize
# Description: (§1) The pre-emergence herbicidal activity of the compounds of the present invention is exemplified by the following test in which the seeds of a variety of monocotyledonous and dicotyledonous plants are seperately mixed with potting soil and planted on top of approximately one inch of soil in separate pots. After planting, the pots are sprayed with the selected aqueous acetone solution containing test compound in sufficient quantity to provide the equivalent of about 0.0125 to 0.4 kg per hectare of test compound per pot. The treated pots are then placed on greenhouse benches, watered and cared for in accordance with conventional greenhouse procedures. From 2 to 4 weeks after treatment, the tests are terminated and each pot is examined and rated according to the rating system set forth below.
# [2] = tested on: Galium aparine (GALAP); test: Pre-emergence herbicidal evaluation, cleaver
# Description: as §1
# [3] = tested on: Digitaria sanguinalis (DIGSA); test: Pre-emergence herbicidal evaluation, large crabgrass
# Description: as §1
# [4] = tested on: Ipomoea hederacea (IPOHE); test: Post-emergence herbicidal evaluation, morning glory; settings: rated 2 to 4 weeks after treatment
# Procedure: (§2) [table] [table] […] These acetone solutions are diluted with water and the resulting formulations applied at dosage levels equivalent of about 0.03 to 0.4 kg per hectare of test compound per pot. After spraying the plants are placed on greenhouse benches and are cared for in the usual manner, commensurate with conventional greenhouse practices. From 2 to 4 weeks after treatment, the seedling plants are examined and rated according to the rating system provided above. A rating 0 indicates growth as untreated control, a rating 9 indicates death.
# [5] = tested on: Alopecurus myosuroides (ALOMY); test: Post-emergence herbicidal evaluation, black grass; settings: rated 2 to 4 weeks after treatment
# Procedure: as §2
# [6] = tested on: Digitaria sanguinalis (DIGSA); test: Post-emergence herbicidal evaluation, large crabgrass; settings: rated 2 to 4 weeks after treatment
# Procedure: as §2
# [7] = tested on: Echinochloa grus galli (ECHCG); test: Post-emergence herbicidal evaluation, barnyard grass; settings: rated 2 to 4 weeks after treatment
# Procedure: as §2
# [8] = tested on: Glycine max (GLXMA); test: Post-emergence herbicidal evaluation, soyabeans; settings: rated 2 to 4 weeks after treatment
# Procedure: as §2
# [9] = tested on: Cassia obtusifolia (CASOB); test: Post-emergence herbicidal evaluation, sicklepod; settings: rated 2 to 4 weeks after treatment
# Procedure: as §2
# [10] = tested on: Cassia obtusifolia (CASOB); test: Pre-emergence herbicidal evaluation, sicklepod
# Description: as §1
SMILES,ZEAMX rating ([1]; dose 0.013 kg/ha),ZEAMX rating ([1]; dose 0.025 kg/ha),ZEAMX rating ([1]; dose 0.1 kg/ha),ZEAMX rating ([1]; dose 0.4 kg/ha),GALAP rating ([2]; dose 0.013 kg/ha),GALAP rating ([2]; dose 0.025 kg/ha),GALAP rating ([2]; dose 0.1 kg/ha),GALAP rating ([2]; dose 0.4 kg/ha),IPOHE rating ([4]; dose 0.03 kg/ha),IPOHE rating ([4]; dose 0.1 kg/ha),IPOHE rating ([4]; dose 0.4 kg/ha),ALOMY rating ([5]; dose 0.03 kg/ha),ALOMY rating ([5]; dose 0.1 kg/ha),ALOMY rating ([5]; dose 0.4 kg/ha),DIGSA rating ([6]; dose 0.03 kg/ha),DIGSA rating ([6]; dose 0.1 kg/ha),DIGSA rating ([6]; dose 0.4 kg/ha),ECHCG rating ([7]; dose 0.03 kg/ha),ECHCG rating ([7]; dose 0.1 kg/ha),ECHCG rating ([7]; dose 0.4 kg/ha),also measured
CC(Cl)=CCOc1cc(C)cc(Oc2cc(C(F)(F)F)nn2C)n1 [Example 11],1 (1 - Trace effect),2 (2 - Slight effect),3 (3 - Moderate effect),5 (5 - Definite injury),1 (1 - Trace effect),3 (3 - Moderate effect),6 (6 - Herbicidal effect),8 (8 - Approaching complete kill),6 (6 - Herbicidal effect),9 (9 - Complete kill),9 (9 - Complete kill),6 (6 - Herbicidal effect),8 (8 - Approaching complete kill),8 (8 - Approaching complete kill),9 (9 - Complete kill),9 (9 - Complete kill),9 (9 - Complete kill),8 (8 - Approaching complete kill),8 (8 - Approaching complete kill),8 (8 - Approaching complete kill),DIGSA rating ([3]; dose 0.013 kg/ha): 8 (8 - Approaching complete kill); DIGSA rating ([3]; dose 0.025 kg/ha): 8 (8 - Approaching complete kill); DIGSA rating ([3]; dose 0.1 kg/ha): 9 (9 - Complete kill); DIGSA rating ([3]; dose 0.4 kg/ha): 9 (9 - Complete kill)
Cc1cc(OCC=C(Cl)Cl)nc(Oc2cc(C(F)(F)F)nn2C)c1 [Example 12],0 (0 - No effect),2 (2 - Slight effect),3 (3 - Moderate effect),5 (5 - Definite injury),1 (1 - Trace effect),4 (4 - Injury),8 (8 - Approaching complete kill),9 (9 - Complete kill),9 (9 - Complete kill),9 (9 - Complete kill),9 (9 - Complete kill),8 (8 - Approaching complete kill),9 (9 - Complete kill),9 (9 - Complete kill),8 (8 - Approaching complete kill),9 (9 - Complete kill),9 (9 - Complete kill),9 (9 - Complete kill),9 (9 - Complete kill),9 (9 - Complete kill),DIGSA rating ([3]; dose 0.013 kg/ha): 9 (9 - Complete kill); DIGSA rating ([3]; dose 0.025 kg/ha): 9 (9 - Complete kill); DIGSA rating ([3]; dose 0.1 kg/ha): 9 (9 - Complete kill); DIGSA rating ([3]; dose 0.4 kg/ha): 9 (9 - Complete kill); GLXMA rating ([8]; dose 0.03 kg/ha): 5 (5 - Definite injury); GLXMA rating ([8]; dose 0.1 kg/ha): 8 (8 - Approaching complete kill); GLXMA rating ([8]; dose 0.4 kg/ha): 8 (8 - Approaching complete kill); CASOB rating ([9]; dose 0.03 kg/ha): 8 (8 - Approaching complete kill); CASOB rating ([9]; dose 0.1 kg/ha): 8 (8 - Approaching complete kill); CASOB rating ([9]; dose 0.4 kg/ha): 8 (8 - Approaching complete kill)
"Cc1cc(OC=CCC(F)(F)F)nc(Oc2cc(C(F)(F)F)nn2C)c1 [Example 2, 2-(1-Methyl-3-trifluoromethylpyrazol-5-yloxy)-4-methyl-6-(4,4,4-trifluorobut-1-enyloxy)pyridine]",0 (0 - No effect),1 (1 - Trace effect),2 (2 - Slight effect),4 (4 - Injury),0 (0 - No effect),0 (0 - No effect),2 (2 - Slight effect),9 (9 - Complete kill),8 (8 - Approaching complete kill),9 (9 - Complete kill),9 (9 - Complete kill),2 (2 - Slight effect),5 (5 - Definite injury),8 (8 - Approaching complete kill),7 (7 - Good herbicidal effect),9 (9 - Complete kill),9 (9 - Complete kill),2 (2 - Slight effect),5 (5 - Definite injury),7 (7 - Good herbicidal effect),CASOB rating ([10]; dose 0.013 kg/ha): 0 (0 - No effect); CASOB rating ([10]; dose 0.025 kg/ha): 1 (1 - Trace effect); CASOB rating ([10]; dose 0.1 kg/ha): 9 (9 - Complete kill); CASOB rating ([10]; dose 0.4 kg/ha): 9 (9 - Complete kill); GLXMA rating ([8]; dose 0.03 kg/ha): 7 (7 - Good herbicidal effect); GLXMA rating ([8]; dose 0.1 kg/ha): 8 (8 - Approaching complete kill); GLXMA rating ([8]; dose 0.4 kg/ha): 8 (8 - Approaching complete kill)
"COc1cc(OCC(F)(F)C(F)F)nc(Oc2cc(C(F)(F)F)nn2C)c1 [Example 4, 2-(1-Methyl-3-trifluoromethylpyrazol-5-yloxy)-4-methoxy-6-(2,2,3,3-tetrafluoropropyloxy)pyridine]",1 (1 - Trace effect),1 (1 - Trace effect),3 (3 - Moderate effect),5 (5 - Definite injury),1 (1 - Trace effect),3 (3 - Moderate effect),5 (5 - Definite injury),8 (8 - Approaching complete kill),8 (8 - Approaching complete kill),9 (9 - Complete kill),9 (9 - Complete kill),3 (3 - Moderate effect),6 (6 - Herbicidal effect),8 (8 - Approaching complete kill),5 (5 - Definite injury),7 (7 - Good herbicidal effect),8 (8 - Approaching complete kill),6 (6 - Herbicidal effect),8 (8 - Approaching complete kill),9 (9 - Complete kill),CASOB rating ([10]; dose 0.013 kg/ha): 3 (3 - Moderate effect); CASOB rating ([10]; dose 0.025 kg/ha): 4 (4 - Injury); CASOB rating ([10]; dose 0.1 kg/ha): 7 (7 - Good herbicidal effect); CASOB rating ([10]; dose 0.4 kg/ha): 9 (9 - Complete kill); GLXMA rating ([8]; dose 0.03 kg/ha): 5 (5 - Definite injury); GLXMA rating ([8]; dose 0.1 kg/ha): 8 (8 - Approaching complete kill); GLXMA rating ([8]; dose 0.4 kg/ha): 8 (8 - Approaching complete kill)
"Cc1cc(OC/C=C/C(F)(F)F)nc(Oc2cc(C(F)(F)F)nn2C)c1 [Example 1, (E)-2-(1-Methyl-3-trifluoromethylpyrazol-5-yloxy)-4-methyl-6-(4,4,4-trifluorobut-2-enyloxy)pyridine]",1 (1 - Trace effect),2 (2 - Slight effect),,5 (5 - Definite injury),1 (1 - Trace effect),2 (2 - Slight effect),7 (7 - Good herbicidal effect),9 (9 - Complete kill),9 (9 - Complete kill),9 (9 - Complete kill),9 (9 - Complete kill),6 (6 - Herbicidal effect),8 (8 - Approaching complete kill),8 (8 - Approaching complete kill),7 (7 - Good herbicidal effect),8 (8 - Approaching complete kill),8 (8 - Approaching complete kill),5 (5 - Definite injury),8 (8 - Approaching complete kill),8 (8 - Approaching complete kill),CASOB rating ([10]; dose 0.013 kg/ha): 0 (0 - No effect); CASOB rating ([10]; dose 0.025 kg/ha): 9 (9 - Complete kill); CASOB rating ([10]; dose 0.1 kg/ha): 9 (9 - Complete kill); CASOB rating ([10]; dose 0.4 kg/ha): 9 (9 - Complete kill); GLXMA rating ([8]; dose 0.03 kg/ha): 6 (6 - Herbicidal effect); GLXMA rating ([8]; dose 0.1 kg/ha): 8 (8 - Approaching complete kill); GLXMA rating ([8]; dose 0.4 kg/ha): 8 (8 - Approaching complete kill); CASOB rating ([9]; dose 0.03 kg/ha): 5 (5 - Definite injury); CASOB rating ([9]; dose 0.1 kg/ha): 5 (5 - Definite injury); CASOB rating ([9]; dose 0.4 kg/ha): 5 (5 - Definite injury)
